# Data published in patent US9932637B2, “Genetic polymorphisms associated with cardiovascular disorders and drug response, methods of detection and uses thereof” (CELERA CORPORATION, priority 2003, dated 2018).
# Values joined by “and” are separate entries in the source; they are usually repeats but may differ in a detail not shown here. Equal values may be shown once.
# Tested on: patients with prior myocardial infarction (CARE study)
# Assay: CARE aligned analysis (prospective and case/control design, white males): association of genotypes with pravastatin efficacy (Tables 13, 15)
# Assay type: in vivo, human
# Conditions: for Pravastatin Patients n/total: WM
# Experimental: The data presented in Table 8 based on an association of genotypes with pravastatin efficacy of the CARE samples were further analyzed and presented in Table 13. The further analysis was performed to align the data obtained from the analysis of the CARE samples, which was a prospective study, to the analysis of the WOSCOP samples, which was a case/control study. Table 13 also presents an analysis of the association of genotypes with pravastatin efficacy in the WOSCOPs samples. Relative to the analysis performed on the data presented in Table 8, there are two significant differences to determine if the SNP influenced pravastatin efficacy. Data obtained from the CARE samples were separated by study design into two groups, those in the prospective study design group and those in the case/control study design group. The original care study contained 16 protocol defined cardiovascular disease defined endpoints and 150 other phenotypes. […] The control groups used to compare the data were also divided into two groups, the “all possible” control group and the “cleaner” control group. […] Because the participants in the WOSCOPs trial were all white males, only data obtained from white males in the CARE study were analysed. Data from the “all possible” and “cleaner” controls were compared to data obtained from the cases in the prospective study design while only data from “cleaner” controls were compared to cases in the case/control study design. The data from the case/control cohorts were analysed using conditional logistic regression (as opposed to logistic regression used for the original anaylsis).
# The anaylsis was refined as described for both Tables 13 and 14.
# [1] = PRKCQ hCV15954277, CARE, Case/Control, F MI/SD/NF MI
# [2] = PRKCQ hCV15954277, CARE, Prospective, F MI/SD/NF MI
# [3] = SERPINA5 hCV9596963, CARE Case/Control, F MI/SD/NF MI
# [4] = SN hCV25623265, CARE Case/Control, F MI/SD/NF MI
# [5] = SN hCV25623265, CARE Prospective, F MI/SD/NF MI
# [6] = TAP1 hCV549926, CARE Case/Control, F MI/SD/NF MI
# [7] = TAP1 hCV549926, CARE Prospective, F MI/SD/NF MI
# [8] = TIMP2 hCV25629888, CARE Case/Control, F MI/SD/NF MI
# [9] = TNF hCV7514879, CARE Case/Control, F MI/SD/NF MI
# [10] = TNF hCV7514879, CARE Prospective, F MI/SD/NF MI
# [11] = VTN hCV2536595, CARE Case/Control, F MI/SD/NF MI
# [12] = VTN hCV2536595, CARE Prospective, F MI/SD/NF MI
compound,measurement,setting,value
CC[C@H](C)C(=O)O[C@H]1C[C@H](O)C=C2C=C[C@H](C)[C@H](CC[C@@H](O)C[C@@H](O)CC(=O)O)[C@H]21 [pravastatin],"n/total (%) cases, Pravastatin Patients, 2 Rare Alleles","PON1 hCV2548962, 2 rare alleles, CARE Prospective, Total CHD Events, All Possible controls, White Males",18/107 (16.8%)
same,Pravastatin Patients n/total,"PPOX hCV25922816, 0 Rare Alleles, CARE Prospective, F&NF MI, Cleaner controls",116/721
same,Pravastatin Patients n/total,"PPOX hCV25922816, 1 Rare Allele, CARE Case/Control, F&NF MI, All Possible controls",10/164
same,Pravastatin Patients n/total,"PPOX hCV25922816, 1 Rare Allele, CARE Prospective, F&NF MI, All Possible controls",10/169
same,Pravastatin Patients n/total,"PPOX hCV25922816, 1 Rare Allele, CARE Prospective, F&NF MI, Cleaner controls",10/113
same,"2 Rare Alleles (%), Pravastatin Patients","PPOX hCV25922816, CARE Case/Control, F&NF MI",(16.7%)
same,"2 Rare Alleles (%), Pravastatin Patients","PPOX hCV25922816, CARE Prospective, F&NF MI",(16.7%)
same,"2 rare alleles n/total (%), pravastatin patients",[1],(11.2%)
same,"Pravastatin vs placebo odds ratio, 0 rare alleles",[1],0.58
same,"Pravastatin vs placebo odds ratio, 1 rare allele",[1],1.04
same,"Pravastatin vs placebo odds ratio, 2 rare alleles",[1],3.15
same,"Pravastatin vs placebo odds ratio, 0 rare alleles",[2],0.57 and 0.56
same,"Pravastatin vs placebo odds ratio, 1 rare allele",[2],1.08 and 0.85
same,"Pravastatin vs placebo odds ratio, 2 rare alleles",[2],3.38 and 2.80
same,"2 Rare Alleles (%), Pravastatin Patients","SELL hCV16172571, CARE Case/Control, F&NF MI",(14.3%)
same,"2 Rare Alleles (%), Pravastatin Patients","SELL hCV16172571, CARE Prospective, F&NF MI",(12.9%)
same,"2 Rare Alleles (%), Pravastatin Patients","SELL hCV25474627, CARE Case/Control, F&NF MI",(14.8%)
same,"2 Rare Alleles (%), Pravastatin Patients","SELL hCV25474627, CARE Prospective, F&NF MI",(13.3%)
same,"2 Rare Alleles (%), Pravastatin Patients","SERPINA1 hCV25640504, CARE Case/Control, F&NF MI",(8.6%)
same,"2 Rare Alleles (%), Pravastatin Patients","SERPINA1 hCV25640504, CARE Prospective, F&NF MI",(8.4%)
same,"2 Rare Alleles (%), Pravastatin Patients",[3],(15.1%)
same,"2 Rare Alleles n/total, Pravastatin Patients",[3],21/139
same,"Pravastatin vs placebo odds ratio, 0 rare alleles",[3],0.89
same,"Pravastatin vs placebo odds ratio, 1 rare allele",[3],0.57
same,"Pravastatin vs placebo odds ratio, 2 rare alleles",[3],1.72
same,"2 Rare Alleles (%), Pravastatin Patients","SERPINI2 hCV370782, CARE Case/Control, F&NF MI",(16.2%)
same,"2 Rare Alleles (%), Pravastatin Patients","SERPINI2 hCV370782, CARE Prospective, F&NF MI",(15.8%)
same,"2 Rare Alleles (%), Pravastatin Patients",[4],(7.5%)
same,"2 Rare Alleles n/total, Pravastatin Patients",[4],13/173
same,"Pravastatin vs placebo odds ratio, 0 rare alleles",[4],0.71
same,"Pravastatin vs placebo odds ratio, 1 rare allele",[4],1.02
same,"Pravastatin vs placebo odds ratio, 2 rare alleles",[4],0.30
same,"2 Rare Alleles (%), Pravastatin Patients",[5],(7.5%)
same,"2 Rare Alleles n/total, Pravastatin Patients",[5],13/174
same,"Pravastatin vs placebo odds ratio, 0 rare alleles",[5],0.72
same,"Pravastatin vs placebo odds ratio, 1 rare allele",[5],0.98
same,"Pravastatin vs placebo odds ratio, 2 rare alleles",[5],0.31
same,"2 Rare Alleles n/total, Pravastatin Patients",[6],1/36 and 1/25
same,"Pravastatin vs placebo odds ratio, 0 rare alleles",[6],0.98 and 0.89
same,"Pravastatin vs placebo odds ratio, 1 rare allele",[6],0.61 and 0.56
same,"Pravastatin vs placebo odds ratio, 2 rare alleles",[6],0.08
same,"2 Rare Alleles n/total, Pravastatin Patients",[7],1/36 and 1/25
same,"Pravastatin vs placebo odds ratio, 0 rare alleles",[7],1.00 and 0.88
same,"Pravastatin vs placebo odds ratio, 1 rare allele",[7],0.60 and 0.55
same,"Pravastatin vs placebo odds ratio, 2 rare alleles",[7],0.09 and 0.08
same,"2 Rare Alleles (%), Pravastatin Patients",[8],(29.2%)
same,"2 Rare Alleles n/total, Pravastatin Patients",[8],7/24
same,"Pravastatin vs placebo odds ratio, 0 rare alleles",[8],0.76
same,"Pravastatin vs placebo odds ratio, 1 rare allele",[8],0.56
same,"Pravastatin vs placebo odds ratio, 2 rare alleles",[8],6.81
same,"2 Rare Alleles (%), Pravastatin Patients",[9],(8.8%)
same,"2 Rare Alleles n/total, Pravastatin Patients",[9],3/34
same,"Pravastatin vs placebo odds ratio, 0 rare alleles",[9],0.87
same,"Pravastatin vs placebo odds ratio, 1 rare allele",[9],0.52
same,"Pravastatin vs placebo odds ratio, 2 rare alleles",[9],0.14
same,"2 Rare Alleles (%), Pravastatin Patients","TNF hCV7514879, CARE Case/Control, F&NF MI",(8.8%)
same,"2 Rare Alleles (%), Pravastatin Patients",[10],(8.6%)
same,"2 Rare Alleles n/total, Pravastatin Patients",[10],3/35
same,"Pravastatin vs placebo odds ratio, 0 rare alleles",[10],0.88
same,"Pravastatin vs placebo odds ratio, 1 rare allele",[10],0.50
same,"Pravastatin vs placebo odds ratio, 2 rare alleles",[10],0.12
same,"2 Rare Alleles (%), Pravastatin Patients","TNF hCV7514879, CARE Prospective, F&NF MI",(8.6%)
same,"2 Rare Alleles n/total, Pravastatin Patients",[11],21/260 and 21/168
same,"Pravastatin vs placebo odds ratio, 0 rare alleles",[11],1.51 and 1.37
same,"Pravastatin vs placebo odds ratio, 1 rare allele",[11],0.63 and 0.56
same,"Pravastatin vs placebo odds ratio, 2 rare alleles",[11],0.66 and 0.64
same,"2 Rare Alleles (%), Pravastatin Patients",[12],(7.9%)
same,"2 Rare Alleles n/total, Pravastatin Patients",[12],21/266 and 21/174
same,"Pravastatin vs placebo odds ratio, 0 rare alleles",[12],1.54 and 1.31
same,"Pravastatin vs placebo odds ratio, 1 rare allele",[12],0.65 and 0.58
same,"Pravastatin vs placebo odds ratio, 2 rare alleles",[12],0.63 and 0.61
